Reference: article PMC7614387 (Chemical communications (Cambridge, England), 2021)

Target: T1, LptH (Pseudomonas aeruginosa, UniProt Q9HVV7)
T1 sequence (Q9HVV7 25-175): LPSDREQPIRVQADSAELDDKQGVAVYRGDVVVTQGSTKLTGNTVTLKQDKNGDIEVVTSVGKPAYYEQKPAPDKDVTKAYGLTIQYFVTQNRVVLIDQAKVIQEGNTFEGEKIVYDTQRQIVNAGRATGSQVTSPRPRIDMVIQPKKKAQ
Experiment: native mass spectrometry
Assay type: biochemical, P. aeruginosa
Conditions: for Emax (in words): comparison within 2a derivatives

Compound | Emax (in words) (nMS) | further results
Clc1cc2c(c3ncccc13)OCN(CCc1ccccc1)C2 [1a] |  | Emax (pH 8, read-out: Emax, maximum achievable monomer mole fraction): 73 ± 2%
COCOc1ccc(C(=O)NCCCC(=O)OC)c2cccnc12 [2e] | highest Emax values of the series | 
COC(=O)CCCNC(=O)c1ccc(O)c2ncccc12 [2c] | highest Emax values of the series | 
O=C(O)c1ccc(O)c2ncccc12 [2a, 5-carboxy-8-hydroxyquinoline] |  | increase in the monomer mole fraction (in words) (100 μM compound, nMS): minimal increase
